Source: patent publication US20220380430A1, “Non-Transgenic Functional Rescue of Neuropeptides” (Worcester Polytechnic Institute, priority 2021, published 2022)

Assays:
trh-1 mutant worms = experiment: Size comparison (body volume) after rescue-by-feeding; type: in vivo, C. elegans; conditions: for restoration of body volume: trh-1 lof animals fed E. coli expressing peptide, in words; for Relative Body Volume: trh-1 mutant animals fed peptide, N2 set as 100%
Procedure: All animals were maintained on bacterial lawns of OP50 E. coli, at 20° C., on NGM agar plates until the start of experiments. Mutant or control animals were transferred onto lawns of DH5α E. coli expressing either scramble peptide or the rescue peptide-of-interest on NGM plates containing […] AMP and 1 mM IPTG. Animals were reared on the peptide-expressing lawns for at least 48 hours at 20° C. before assaying for rescue of mutant phenotype at the appropriate developmental stage.
The body morphology different of trh-1 mutants was compared to wild-type worms by body volume measurements. Wild-type (N2) and trh-1 animals were synchronized by embryonic starvation following alkaline hypochlorite protocols. Ten gravid hermaphrodites from OP50 E. coli plates were picked into 30 μL drops of alkaline hypochlorite solution (20% sodium hypochlorite, 500 mM KOH). Two drops were placed on either side of an unseeded NGM plate, resulting in 20 animals per plate. Plates were then incubated for 24 hours at 20° C. before L1 larval animals washed with 1 mL M9 (22 mM KH2PO4, 42.25 mM Na2HPO4, 85.5 mM NaCl, 1 mM MgSO4) per unseeded NGM plate. Allow L1 worms to settle into pellet before removing M9 supernatant. Repeat washing step 2 more times. Plate worm pellet onto NGM with […] AMP and 1 mM IPTG plates containing 75 μL peptide lawns.
After at 48 hours at 20° C., animals were recorded using a Basler acA2500-14 uM camera using WormLab software (WormLab 4.1; MBF Bioscience, 2017) for 65 seconds. Worm length, width, and area were calculated within the WormLab software (FIG. 5C-FIG. 5H). As the WormLab worm width metric is an average of cross-sections throughout the length of each worm, this was used to calculate the volume of a worm as a cylinder, with the Volume=π*(0.5*width)^2*length (FIG. 2A-FIG. 2B, FIG. 5A-FIG. 5B).
Two to four plates were recorded per day for at least three days to generate data sets. Control plates of N2 and trh-1 animals raised on the scramble peptide were grown alongside every rescue feeding. Each “worm track” was considered an n=1. Tracks were excluded if (1) worm tracks less than 10 seconds, or (2) worms were further than two standard deviations from the mean metric. Following tests for normality, comparisons were made using either Mann-Whitney tests for direct comparisons between N2 and trh-1 animals reared on OP50, or Kruskal-Wallis non-parametric ANOVAs and Dunn's multiple comparisons tests for animals raised on peptide feeding strains. Comparisons were made for metrics: length (FIG. 5C-FIG. 5D), width (FIG. 5e-FIG. 5F), area (FIG. 5G-FIG. 5H), and volume (FIG. 2A-FIG. 2B, FIG. 5A-FIG. 5B).

C. elegans = experiment: Single worm attraction assay (SWAA) of ascarosides; type: in vivo; conditions: males; in words
Procedure: The spot retention assay was adapted to allow for better characterization of individual worm behavior and robust interrogation of attraction to small molecules. The attractiveness of 1 μM ascr #8 (FIG. 11A) were compared across multiple strains of C. elegans (the wild-type N2 strain, the high incidence of male him-5 and him-8 strains, and the chemosensory cilia defective osm-3), using the novel behavioral assay, the single worm attraction assay (SWAA) (FIG. 11A). In this assay, individual animals were placed directly into the spot of the ascaroside cue (A) while simultaneously removing any potential of male-male contact. […] Likewise, a vehicle control (V) is also included, to account of any changes in dwell time that are driven by the components of the vehicle. The outer forty wells of a 48-well suspension culture plate (Olympus Plastics, Cat #: 25-103) were seeded with 200 μL of standard NGM agar. To prepare the plates for the assay, they were acclimated to room temperature, at which point each well was seeded with 65 μL of OP50 E. coli. The assay plates were then transferred to a 37° C. incubator with the lid tilted for 4 h to allow the bacterial culture to dry on the agar. Once the bacterial culture dried, the lid was replaced the plate was stored at 20° C. until used in the assay. Fifty to sixty L4 worms were segregated by sex and stored at 20° C. for 5 h to overnight to be assayed as young adults. 0.8 μL of either vehicle control or ascaroside #8 was placed in the center of the well corresponding to that condition within the quadrant being tested, following a random block design (FIG. 11A). A single worm was placed in each of the 10 wells to be assayed, and the plate was transferred to a light source and camera and recorded for 15 m. […] Raw dwell time values were calculated by subtracting the time a worm exited the cue (center of the well in spatial controls), from the time it entered, as in the SRA. This was determined per visit, and the average dwell time was calculated for each animal in the quadrant. Averages of the four-quadrant means were determined per plate, and a minimum of five plates were assayed per strain/condition. The mean raw dwell time across five plates was calculated and used for statistical analyses and graphical display. […] An “attractive visit” was first determined for each plate as any visit greater than two standard deviations above the mean dwell time within the vehicle control for that plate. Any individual visit meeting this threshold was scored as a “1”, and any below was scored a “0”. The percent visits per-worm that were attractive was determined, and the average of each quadrant taken. […] The average percent of attractive visits across five plates was calculated and used for statistical analyses and graphical display.

Compound | restoration of body volume (trh-1 mutant worms) | Relative Body Volume (trh-1 mutant worms) [%] | male attraction in the SWAA (C. elegans)
ANELF-NH2 [TRH-1B] | complete restoration of wild-type body volume | ~100 | 
GRELF-NH2 [TRH-1A] | complete restoration of wild-type body volume | ~100 | 
C[C@H](CCCC/C=C/C(=O)O)O[C@@H]1O[C@@H](C)[C@H](O)C[C@H]1O [ascr #3] |  |  | maintains its ability to attract males in the SWAA
